According to patent US20230102836A1, “Amoebicidal Compositions for Contact Lens Solutions” (University of the West of Scotland, priority 2019, published 2023):
“And” between values parts separate entries of the source, which are not always exact repeats. Equal entries are not always repeated. Where two headings read alike, the source gives them in different places.

Legend:
[1] = test system: Acanthamoeba trophozoites; test: Checkerboard dilution QAC-APC interaction (Bliss model); assay type: cell-based, Acanthamoeba castellanii; conditions: APC12, APC14, APC16; 96 h at 25° C.
Experimental: Acanthamoeba trophozoites (10^5 cells/ml. n=5/treatment) treated with 100 μg/ml doubly diluted to 0.06 μg/ml of QAC12 (FIG. 7A), […], QAC16 (FIG. 7C) and QAC18 (FIG. 7D) with APC 12 (i), APCI 4 (ii) and APC16 (iii) for 96 h at 25° C. Cell viability estimated by the alamarBlue assay the dose-response curves used to produce a surface analysis (right panel) and the interaction profile determined using the Bliss model. The degree of interaction characterised by the QCScore heuristic score are produced as heat map (left panel). The colour of each cell in the heatmap and the surface analysis represents the assay response at that dose combination; red to orange, antagonistic: yellow to green, additive and blue, synergistic.
The change in potency between QAC and APC prompted us to used the checkerboard dilution method to identify synergistic interactions (FIG. 7A-D). Three interaction profiles, antagonistic (orange to red), additive (yellow to green) and synergistic (blue) were observed, with optimal synergistic interactions deemed to be significant occurring between 20-38%; (FIG. 7).

[2] = test system: gDNA from A. castellanii; test: QAC-DNA interaction assay; assay type: binding, Acanthamoeba castellanii; conditions: DNA:QAC ratios 1:0, 1:1, 1:10, 1:20; 15 min
Experimental: FIGS. 3A and 3B show the QAC-DNA interaction. The absorbance of genomic DNA (0.6 ng/ml) extracted from A. castellani trophozoites measured at 260 nm with the Nanodrop after incubating for 15 minutes with 0 ng/ml, 0.6 ng/ml, 6 ng/ml or 12 ng/ml of QAC12 (FIG. 3A) or QAC16 (FIG. 3B) to give ratios of 1:0, 1:1, 1:10 and 1:20. DNA absorbance increased and decreased with increased […] and [QAC12] respectively. Data is mean absorbance at 260 nm±SD; n=4 independent experiments performed in triplicates.
Genomic deoxynucleic acids (gDNA) from 10^8 A. castellanii trophozoites (treated with and without QAC) were extracted from cells harvested by centrifugation (850×g, 10 min), lysed with UNSET buffer (8M urea, […] NaCl, 2% SDS, […] ethylenediaminetetraacetic acid (EDTA), […] Tris-HCl, pH 7.5) and the DNA extracted with phenol-chloroform (1:1 v/v). The biphasic suspension with DNA enriched on the […] was centrifuged (12,000×g for 15 min, 4° C.) for clear separation and transferred to a new microcentrifuge tube. The DNA was precipitated with cold ethanol (100%, v/v) and 0.3M sodium acetate, washed twice with 70% (v/v) ethanol (12,000×g for 10 min, 4° C.), air dried and resuspended in distilled water. […]

[3] = test system: A. castellanii trophozoites; test: Trophozoite-cyst conversion in encystment medium; assay type: cell-based, Acanthamoeba castellanii ATCC 50370; conditions: encystment medium supplemented with 37.5 μg/ml of QAC12
Experimental: Acanthamoeba trophozoites (10^5 cells/ml) incubated for up to 192 h in encystment medium inoculated with (dark grey) and without (light grey) QAC12 at 25° C. The number of trophozoites remaining estimated microscopically and expressed as a percent of total trophozoites at the start of the assay. Data is mean […]±SD; n=4 independent experiments performed in triplicates.
(§1) Acanthamoeba castellanii ATCC 50370 trophozoites and cysts were cultured in Peptone Glucose (PG) medium and encystment medium (Chagla A H, Griffiths A J (1974) Microbiology: 85(1): 139-145) respectively at 25° C. Cysts were prepared by incubating trophozoites for 8 days in encystment medium and integrity validated with calcofluor (0.25 μg/ml) assay (Gatti S et al (2010) J. Med. Microbiol.; 59: 1324-1330) or sodium dodecyl sulfate (SDS, 0.5% w/v) disintegration assay (Dudley R et al (2005) Acta Trop.; 9: 100-8) and microscopic observation.

[4] = QACs; cited from earlier work
[5] = test system: A. castellanii cysts; test: Cytotoxicity assay on cysts (trypan blue); assay type: cell-based, Acanthamoeba castellanii ATCC 50370; conditions: Acanthamoeba castellanii
Experimental: as §1
The compounds used in this study all contained alkyl-carbon chains: three APCs [dodecyl-PC (APC12), tetradecyl-PC. (APC14) and hexadecyl-PC (APC16)] (Anatrace) and four QACs [docdecyl-TMAB (QAC12), tetradecyl-TMAB (QAC14), hexadecyl-TMAB (QAC16) and octadecyl-TMAB (QAC18)](Sigma). All were prepared to a stock concentration of 1 mg/ml and diluted as required by the experimental protocol in the cytotoxicity assays. A. castellanii trophozoites and cysts (at 10^5 cells/ml) with or without APCs or QACs (concentrations ranging from […] doubly diluted to 0.04 μg/ml to a final volume of 100 μl) in a 96-well plate were incubated at 25° C. for a duration determined by the experimental protocol.
For the combined assay, similar concentrations of QAC18 and APC16 were prepared and 18.75 μg/ml and 37.5 μg/ml of QAC12 added (to a final volume of 100 μl) were added to 10^5 cells/mi in a 96-well plate and later incubated at 25° C. for a duration determined by the experimental protocol. Resazurin (7-Hydroxy-31-phenoxazin-3-one 10-oxide; 5 mg/ml; McBride J et al (2005) J. Clin. Microbiol.; 43: 629-634) and trypan blue (0.4 μg/ml; Mafra C S P et al (2013) Investig. Ophthalmol. Vis. Si.; 54: 6363-6372) were then added to trophozoites and cysts respectively after being exposed to the compounds and the cell viability estimated microscopically and from changes in absorbance (at 595 nm and 570 nm) respectively.
(§2) Efficacy was expressed as a percentage of untreated controls for each drug concentration used and the data used to calculate the IC50. Cell density was estimated using the modified Neubaur hemocytometer and expressed as cells/ml.

[6] = test system: A. castellanii trophozoites; test: Cytotoxicity assay on trophozoites (resazurin / alamarBlue); assay type: cell-based, Acanthamoeba castellanii ATCC 50370; conditions: for IC50: Acanthamoeba castellanii, Table 2, read-out: IC50 A. castellanii trophozoites
Experimental: as §1
The compounds used in this study all contained alkyl-carbon chains: three APCs [dodecyl-PC (APC12), tetradecyl-PC. (APC14) and hexadecyl-PC (APC16)] (Anatrace) and four QACs [docdecyl-TMAB (QAC12), tetradecyl-TMAB (QAC14), hexadecyl-TMAB (QAC16) and octadecyl-TMAB (QAC18)](Sigma). All were prepared to a stock concentration of 1 mg/ml and diluted as required by the experimental protocol in the cytotoxicity assays. […]
[…] Resazurin (7-Hydroxy-31-phenoxazin-3-one 10-oxide; 5 mg/ml; McBride J et al (2005) J. Clin. Microbiol.; 43: 629-634) and trypan blue (0.4 μg/ml; Mafra C S P et al (2013) Investig. Ophthalmol. Vis. Si.; 54: 6363-6372) were then added to trophozoites and cysts respectively after being exposed to the compounds and the cell viability estimated microscopically and from changes in absorbance (at 595 nm and 570 nm) respectively.
as §2

[7] = test system: A. castellanii trophozoites; test: Drug wash-out / alamarBlue-reversion assay, trophozoites; assay type: cell-based, Acanthamoeba castellanii ATCC 50370
[8] = test system: A. castellanii cysts; test: Drug wash-out / alamarBlue-reversion assay, cysts; assay type: cell-based, Acanthamoeba castellanii ATCC 50370; conditions: for Back transformation to trophozoites after drug wash-out: Cysts; for Back transformation to trophozoites after drug wash-out: key: +: indicates cells reverting back to trophozoites after washout; and capable of oxidizing reduced alamarBlue from blue to pink after 8 days; −: indicates cell that did not revert to trophozoites after wash-out and unable to oxidise reduced alamarBlue solution
Experimental: For the drug kinetic assay, viability was assessed by the linked alamarBlue-reversion assay. Drug-treated cysts were washed with PBS and fresh PG medium was added to allow reversion to trophozoites for 5 days, after which, alamar blue was added and viability estimated as described above.
The cysticidal activity of QAC16 to QAC18 strongly correlated with (a) the alkyl-carbon chain lengths (Table 2) and the duration of drug contact (FIG. 8H). Like trophozoites, death was via leakage judged by 40% and 50% increase in DNA and proteins in the external milieu after 1 h (FIGS. 9A and 9B). To investigate if the cyst were viable, a complementary viability assay that involved, drug washout, incubation in PG medium to allow reversion of viable cyst to trophozoite for 7 days, and estimation of viability using the oxidation of resazurin after 6 h.

[9] = read-out: IC50 A. castellanii cysts

SMILES: CCCCCCCCCCCC[N+](C)(C)C.[Br-] [QAC12, Dodecyltrimethyl ammonium bromide]
- Interaction profile of QAC combined with APCs [1]: Significant synergistic ‘well defined’ interactions were more predominant
- Change of gDNA absorbance at 260 nm with increasing QAC [2]: dose-dependent decreased absorbance
- Delay of encystation [3]: 96 h
- CMC [4]: ^+3.5 ± 0.3 μM
- IC50 [5, 9]: > 37.5 µg/mL and > 122 µM
- Increase in absorbance at 570 nm (cell density) relative to control cells ([6]; 96 h at 25° C., peak at 37.7 μg/ml, alamarBlue): 4 fold
- IC50 [6]: > 37.5 µg/mL and > 122 µM
- Effect on trophozoite biomass ([6]; FIG. 4): dose-dependent increased biomass
- Activity against A. castellanii trophozoites ([6]; at up to 37.5 μg/ml): inactive

SMILES: CCCCCCCCCCCCCCCC[N+](C)(C)C.[Br-] [QAC16, hexadecyltrimethyl ammonium bromide]
- Interaction profile of QAC combined with APCs [1]: less frequent and ‘noisy’
- Back transformation to trophozoites after drug wash-out ([7]; 9.375 μg/ml, 1 h): +
- Back transformation to trophozoites after drug wash-out ([7]; 9.375 μg/ml, 24 h): +
- Back transformation to trophozoites after drug wash-out ([7]; 9.375 μg/ml, 48 h): +
- Back transformation to trophozoites after drug wash-out ([7]; 9.375 μg/ml, 72 h): +
- Back transformation to trophozoites after drug wash-out ([7]; 9.375 μg/ml, 96 h): +
- Back transformation to trophozoites after drug wash-out ([7]; 18.75 μg/ml, 1 h): +
- Back transformation to trophozoites after drug wash-out ([7]; 18.75 μg/ml, 24 h): −
- Back transformation to trophozoites after drug wash-out ([7]; 18.75 μg/ml, 48 h): −
- Back transformation to trophozoites after drug wash-out ([7]; 18.75 μg/ml, 72 h): −
- Back transformation to trophozoites after drug wash-out ([7]; 18.75 μg/ml, 96 h): −
- Back transformation to trophozoites after drug wash-out ([7]; 37.50 μg/ml, 1 h): −
- Back transformation to trophozoites after drug wash-out ([7]; 37.50 μg/ml, 24 h): −
- Back transformation to trophozoites after drug wash-out ([7]; 37.50 μg/ml, 48 h): −
- Back transformation to trophozoites after drug wash-out ([7]; 37.50 μg/ml, 72 h): −
- Back transformation to trophozoites after drug wash-out ([7]; 37.50 μg/ml, 96 h): −
- Amoebotoxicity after wash-out and replacement with PG medium ([7]; after 24 h at 18.75 μg/ml): amoebotoxic
- Amoebotoxicity after wash-out and replacement with PG medium ([7]; from 1 h onwards at 37.5 μg/ml): amoebotoxic
- Resurgence of cysts after drug washout ([8]; 37.5 μg/ml after 48 h): No resurgence
- Back transformation to trophozoites after drug wash-out ([8]; 9.375 μg/ml, 24 h): +
- Back transformation to trophozoites after drug wash-out ([8]; 9.375 μg/ml, 48 h): +
- Back transformation to trophozoites after drug wash-out ([8]; 9.375 μg/ml, 72 h): +
- Back transformation to trophozoites after drug wash-out ([8]; 18.75 μg/ml, 24 h): +
- Back transformation to trophozoites after drug wash-out ([8]; 18.75 μg/ml, 48 h): +
- Back transformation to trophozoites after drug wash-out ([8]; 18.75 μg/ml, 72 h): +
- Back transformation to trophozoites after drug wash-out ([8]; 37.50 μg/ml, 24 h): +
- Back transformation to trophozoites after drug wash-out ([8]; 37.50 μg/ml, 48 h): −
- Back transformation to trophozoites after drug wash-out ([8]; 37.50 μg/ml, 72 h): −
- CMC [4]: 0.26 ± 0.2 µM
- IC50 ([5]; 96 h, read-out: Estimated IC50 against matured cysts): 19 ± 0.03 µg/mL
- IC50 [5, 9]: 19.2 µg/mL and 72 µM
- IC50 [6]: 4.9 µg/mL and 19 µM
